Experimental data as given in article PMC3317778, “Development of a Unique Small Molecule Modulator of CXCR4” (PLoS ONE, 2012).

Experiments:
[1] = target: T1, CXC chemokine receptor-4 (CXCR4) (Homo sapiens, UniProt P61073); test: competition with biotinylated TN14003 on MDA-MB-231 cells (immunofluorescence); supported by CXCL12-induced cAMP modulation assay in CXCR4-expressing cells (IC50 is for CXCR4/CXCL12 actions); type: cell-based
[2] = target: T1, CXC chemokine receptor-4 (CXCR4)

T1 sequence (P61073 whole entry): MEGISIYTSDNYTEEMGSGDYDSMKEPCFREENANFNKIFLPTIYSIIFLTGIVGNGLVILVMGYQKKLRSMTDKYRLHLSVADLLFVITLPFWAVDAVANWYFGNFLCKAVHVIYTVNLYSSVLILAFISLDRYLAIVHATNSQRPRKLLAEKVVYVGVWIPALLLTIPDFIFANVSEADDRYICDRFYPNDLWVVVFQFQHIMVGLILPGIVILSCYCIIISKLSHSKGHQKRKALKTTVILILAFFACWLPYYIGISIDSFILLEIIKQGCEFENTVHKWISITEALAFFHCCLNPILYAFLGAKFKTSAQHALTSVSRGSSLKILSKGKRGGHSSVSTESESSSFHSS

SMILES	IC50 [1] [nM]	reference antagonist; block of CXCL12-induced cAMP reduction in U87CD4CXCR4 cell [2] [nM]
c1cnc(NCc2ccc(CNc3ncccn3)cc2)nc1 [MSX-122, N,N′-(1,4-phenylenebis(methylene))dipyrimidin-2-amine]	~10	
c1cc(CN2CCCNCCNCCCNCC2)ccc1CN1CCCNCCNCCCNCC1 [AMD3100]		1000
